Laboratory results taken from ChEMBL document CHEMBL5257106, “Design, synthesis, and biological evaluation of novel HDAC inhibitors with a 3-(benzazol-2-yl)quinoxaline framework” (Bioorg Med Chem Lett, 2023).
Active and inactive are the calls of the source. No cut-off for these calls is given here.

Legend:
K562 = experiment: Antiproliferative activity against human K562 cells assessed as inhibition of cell growth by MTT assay; format: functional, cell-based
[1] = molecular target: T1, Histone deacetylase (Homo sapiens) (UniProt Q13547+O15379+Q9UBN7+Q92769+Q9UQL6+Q8WUI4+Q9BY41+Q96DB2+P56524+Q9UKV0+Q969S8); experiment: Inhibition of HDAC in human HCT-116 cells assessed as increase in histone H3 acetylation incubated for 24 hrs by Western blot analysis; format: cell-based; conditions: dose 0.5-1 µM
HCT-116 [2] = experiment: Antiproliferative activity against human HCT-116 cells assessed as inhibition of cell growth by MTT assay; format: functional, cell-based
HCT-116 [3] = experiment: Induction of apoptosis in human HCT-116 cells assessed as viable cells at 0.5 uM incubated for 24 hrs by Annexin V-FITC/PI staining based flow cytometry analysis (reference value: 93.2%); format: functional; conditions: read-out: Activity
HCT-116 [4] = experiment: Induction of apoptosis in human HCT-116 cells assessed as early apoptotic cells at 1 uM incubated for 24 hrs by Annexin V-FITC/PI staining based flow cytometry analysis (reference value: 6.50%); format: functional
[5] = molecular target: T2, DNA topoisomerase 1 (Homo sapiens) (UniProt P11387); experiment: Inhibition of topoisomerase 1 in human HCT-116 cells assessed as suppression of Topo 1 protein expression incubated for 24 hrs by Western blot analysis; format: cell-based; conditions: dose 0.5-1 µM
T2 sequence (whole entry): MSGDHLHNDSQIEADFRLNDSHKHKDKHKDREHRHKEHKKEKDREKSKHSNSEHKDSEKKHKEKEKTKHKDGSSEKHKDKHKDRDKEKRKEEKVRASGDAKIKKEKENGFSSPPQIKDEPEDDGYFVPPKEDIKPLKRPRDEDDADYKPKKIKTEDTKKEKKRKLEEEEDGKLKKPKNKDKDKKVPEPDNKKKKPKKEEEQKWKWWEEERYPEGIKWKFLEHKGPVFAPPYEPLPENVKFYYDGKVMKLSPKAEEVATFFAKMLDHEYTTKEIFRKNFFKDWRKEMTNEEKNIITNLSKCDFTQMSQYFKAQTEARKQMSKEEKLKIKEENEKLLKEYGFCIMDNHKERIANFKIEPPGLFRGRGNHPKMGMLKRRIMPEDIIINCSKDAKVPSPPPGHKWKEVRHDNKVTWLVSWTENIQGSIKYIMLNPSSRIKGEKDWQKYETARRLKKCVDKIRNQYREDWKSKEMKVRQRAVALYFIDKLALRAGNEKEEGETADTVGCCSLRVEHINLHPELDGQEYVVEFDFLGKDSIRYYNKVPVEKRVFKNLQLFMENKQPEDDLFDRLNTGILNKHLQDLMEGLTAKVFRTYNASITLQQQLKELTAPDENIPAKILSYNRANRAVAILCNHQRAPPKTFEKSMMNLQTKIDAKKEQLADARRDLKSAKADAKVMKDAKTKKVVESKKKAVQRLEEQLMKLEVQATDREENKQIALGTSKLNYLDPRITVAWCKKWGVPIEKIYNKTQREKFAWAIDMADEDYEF

RS4-11 = experiment: Antiproliferative activity against human RS4-11 cells assessed as inhibition of cell growth by MTT assay; format: functional, cell-based
HCT-116 [6] = experiment: Induction of ROS production in human HCT-116 cells by flow cytometric analysis; format: functional, cell-based; conditions: dose 0.5-1 µM
Histone deacetylase 2 = Histone deacetylase 2 (Homo sapiens, UniProt Q92769); experiment: Inhibition of HDAC2 (unknown origin)
HCT-116 [7] = experiment: Induction of cell cycle arrest in human HCT-116 assessed as increase in G2/M phase cells at 0.5 uM incubated for 48 hrs by flow cytometric analysis (reference value: 23.70%); format: functional
A2780 = experiment: Antiproliferative activity against human A2780 cells assessed as inhibition of cell growth by MTT assay; format: functional, cell-based
HCT-116 [8] = experiment: Induction of apoptosis in human HCT-116 cells assessed as early apoptotic cells at 0.5 uM incubated for 24 hrs by Annexin V-FITC/PI staining based flow cytometry analysis (reference value: 6.50%); format: functional
[9] = molecular target: T2, DNA topoisomerase 1 (Homo sapiens); experiment: Inhibition of topoisomerase 1 (unknown origin) mediated DNA relaxation assessed as delay in pBR322 DNA migration by gel electrophoresis assay
HL-60 [10] = experiment: Antiproliferative activity against human HL-60 cells assessed as inhibition of cell growth by MTT assay; format: functional, cell-based
[11] = molecular target: T1, Histone deacetylase (Homo sapiens); experiment: Inhibition of HDAC in human HCT-116 cells assessed as increase in alpha tubulin acetylation incubated for 24 hrs by Western blot analysis; format: cell-based; conditions: dose 0.5-1 µM
HCT-116 [12] = experiment: Induction of apoptosis in human HCT-116 cells assessed as activation of caspase pathway incubated for 24 hrs by Western blot analysis; format: functional, cell-based; conditions: dose 0.5-1 µM
HCT-116 [13] = experiment: Induction of apoptosis in human HCT-116 cells assessed as decrease in Bcl-2 protein expression incubated for 24 hrs by Western blot analysis; format: functional, cell-based; conditions: dose 0.5-1 µM
HCT-116 [14] = experiment: Induction of cell cycle arrest in human HCT-116 assessed as decrease in G0/G1 phase cells at 1 uM incubated for 48 hrs by flow cytometric analysis (reference value: 63.51%); format: functional; set-up: scale not given: the % may be the effect or the level left
HCT-116 [15] = experiment: Induction of cell cycle arrest in human HCT-116 assessed as S phase cells at 1 uM incubated for 48 hrs by flow cytometric analysis (reference value: 12.79%); format: functional
[16] = Cytotoxicity against HUVEC cells assessed as inhibition of cell growth by MTT assay; conditions: human
HCT-116 [17] = experiment: Induction of apoptosis in human HCT-116 cells assessed as late apoptotic cells at 1 uM incubated for 24 hrs by Annexin V-FITC/PI staining based flow cytometry analysis (reference value: 0.323%); format: functional
HCT-116 [18] = experiment: Potency index, ratio of SAHA IC50 to test compound IC50 for antiproliferative activity against human HCT-116 cells assessed as inhibition of cell growth by MTT assay; format: functional
HCT-116 [19] = experiment: Induction of apoptosis in human HCT-116 cells assessed as necrotic cells at 1 uM incubated for 24 hrs by Annexin V-FITC/PI staining based flow cytometry analysis (reference value: 0.00%); format: functional
Histone deacetylase 3 = Histone deacetylase 3 (Homo sapiens, UniProt O15379); experiment: Inhibition of HDAC3 (unknown origin)
HL-60 [20] = experiment: Potency index, ratio of SAHA IC50 to test compound IC50 for antiproliferative activity against human HL-60 cells assessed as inhibition of cell growth by MTT assay; format: functional
Histone deacetylase 1 = Histone deacetylase 1 (Homo sapiens, UniProt Q13547); experiment: Inhibition of HDAC1 (unknown origin)
HCT-116 [21] = experiment: Induction of apoptosis in human HCT-116 cells assessed as upregulation of cleaved PARP expression at 0.5 to 1 uM incubated for 24 hrs by Western blot analysis; format: functional, cell-based; conditions: dose 0.5-1 µM
HCT-116 [22] = experiment: Induction of apoptosis in human HCT-116 cells assessed as total apoptotic cells at 1 uM incubated for 24 hrs by Annexin V-FITC/PI staining based flow cytometry analysis (reference value: 6.823%); format: functional
HCT-116 [23] = experiment: Induction of cell cycle arrest in human HCT-116 assessed as S phase cells at 0.5 uM incubated for 48 hrs by flow cytometric analysis (reference value: 12.79%); format: functional
HCT-116 [24] = experiment: Induction of cell cycle arrest in human HCT-116 assessed as increase in G2/M phase cells at 1 uM incubated for 48 hrs by flow cytometric analysis (reference value: 23.70%); format: functional

Histone deacetylase 1, sequence (Q13547 whole entry): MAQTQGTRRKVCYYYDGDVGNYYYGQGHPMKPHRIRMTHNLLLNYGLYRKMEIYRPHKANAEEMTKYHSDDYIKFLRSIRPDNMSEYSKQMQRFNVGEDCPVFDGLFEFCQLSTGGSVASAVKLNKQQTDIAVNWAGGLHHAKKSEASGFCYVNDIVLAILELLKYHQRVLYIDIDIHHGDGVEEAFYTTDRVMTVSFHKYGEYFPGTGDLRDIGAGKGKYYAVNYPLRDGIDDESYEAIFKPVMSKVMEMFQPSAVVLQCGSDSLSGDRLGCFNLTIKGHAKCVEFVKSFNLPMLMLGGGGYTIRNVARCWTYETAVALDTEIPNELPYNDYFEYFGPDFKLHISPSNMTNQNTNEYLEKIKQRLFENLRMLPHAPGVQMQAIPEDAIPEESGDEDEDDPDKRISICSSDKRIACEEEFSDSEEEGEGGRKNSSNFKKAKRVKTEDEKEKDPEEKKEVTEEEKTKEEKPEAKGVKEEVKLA
Histone deacetylase 3, sequence (O15379 whole entry): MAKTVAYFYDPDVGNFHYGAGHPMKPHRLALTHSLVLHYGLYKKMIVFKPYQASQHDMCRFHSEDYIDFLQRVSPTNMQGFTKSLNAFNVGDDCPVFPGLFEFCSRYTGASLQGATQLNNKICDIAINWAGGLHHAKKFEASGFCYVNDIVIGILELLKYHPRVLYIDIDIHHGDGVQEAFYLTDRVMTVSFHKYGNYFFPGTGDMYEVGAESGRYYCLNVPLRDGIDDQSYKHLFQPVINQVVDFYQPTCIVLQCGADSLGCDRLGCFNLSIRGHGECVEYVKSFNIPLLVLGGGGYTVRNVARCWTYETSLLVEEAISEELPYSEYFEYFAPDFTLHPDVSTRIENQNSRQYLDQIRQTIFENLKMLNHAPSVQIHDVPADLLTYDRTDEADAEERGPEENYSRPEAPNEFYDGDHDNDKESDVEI
Histone deacetylase 2, sequence (Q92769 whole entry): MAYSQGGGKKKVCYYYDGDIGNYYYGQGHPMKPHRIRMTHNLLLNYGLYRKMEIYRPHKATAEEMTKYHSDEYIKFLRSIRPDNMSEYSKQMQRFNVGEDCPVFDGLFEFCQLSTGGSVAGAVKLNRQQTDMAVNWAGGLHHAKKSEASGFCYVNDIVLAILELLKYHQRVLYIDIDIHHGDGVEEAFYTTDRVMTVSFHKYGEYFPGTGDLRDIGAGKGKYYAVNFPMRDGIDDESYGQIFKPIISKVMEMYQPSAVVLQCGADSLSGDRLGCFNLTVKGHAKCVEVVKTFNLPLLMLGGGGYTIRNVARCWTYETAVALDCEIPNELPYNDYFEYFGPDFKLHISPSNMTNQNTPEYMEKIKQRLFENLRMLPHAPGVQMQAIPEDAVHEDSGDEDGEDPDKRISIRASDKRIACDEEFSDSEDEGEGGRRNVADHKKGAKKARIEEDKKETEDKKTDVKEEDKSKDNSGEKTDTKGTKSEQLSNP

- IC50 (K562): 890 nM
- inhibition [1]: Dose-Dependent Effect
- IC50 (HCT-116 [2]): 910 nM
- inhibition [5]: Dose-Dependent Effect
- IC50 (RS4-11): 890 nM
- IC50 (Histone deacetylase 2): 34.4 nM
- IC50 (A2780): 1760 nM
- inhibition [9]: Active
- IC50 (HL-60 [10]): 890 nM
- inhibition [11]: Dose-Dependent Effect
- IC50 (Histone deacetylase 3): 15.5 nM
- IC50 (Histone deacetylase 1): 11 nM
SMILES: O=C(CCCCCCNc1nc2ccccc2nc1-c1nc2ccccc2o1)NO
- viability at 0.5 µM (HCT-116 [3]): 64.5%
- Activity (HCT-116 [4]): 34.5%
- Activity (HCT-116 [6]): Dose-Dependent Effect
- Activity (HCT-116 [7]): 36.67%
- Activity (HCT-116 [8]): 28.1%
- Activity (HCT-116 [12]): Dose-Dependent Effect
- Activity (HCT-116 [13]): Dose-Dependent Effect
- Activity (HCT-116 [14]): 46.57%
- Activity (HCT-116 [15]): 13.79%
- IC50 [16]: 19100 nM
- Activity (HCT-116 [17]): 17.3%
- Ratio IC50 (HCT-116 [18]): 6
- Activity (HCT-116 [19]): 0.103%
- Ratio IC50 (HL-60 [20]): 2
- Activity (HCT-116 [21]): Active
- Activity (HCT-116 [22]): 51.8%
- Activity (HCT-116 [23]): 11.65%
- Activity (HCT-116 [24]): 39.64%
